Test results: patent publication US10245264B2, “Substituted imidazo[1,2-a]pyrazines as soluble guanylate cyclase activators” (Merck Sharp & Dohme Corp., priority 2015, dated 2019)

Experiments:
[1] = target: T1, sGC α1/β1 heterodimer stably expressed in CHO-K1 cells (CHO-K1/sGC) (Homo sapiens, UniProt Q02108+Q02153); assay: Cell-based sGC functional assay (CASA assay), cGMP generation by HTRF; details: for Emax: CHO-K1, maximum cGMP production of Compound A set to 100% activation, read-out: % Act. (percent activation relative to Compound A); for EC50: CHO-K1/sGC cells, 1 hr at 37° C., 4P fit, presence or absence of DETA-NO not given, read-out: IP (nM) (inflection point)
T1 construct: expressed in transfected cells
T1 sequence (Q02108 1-690): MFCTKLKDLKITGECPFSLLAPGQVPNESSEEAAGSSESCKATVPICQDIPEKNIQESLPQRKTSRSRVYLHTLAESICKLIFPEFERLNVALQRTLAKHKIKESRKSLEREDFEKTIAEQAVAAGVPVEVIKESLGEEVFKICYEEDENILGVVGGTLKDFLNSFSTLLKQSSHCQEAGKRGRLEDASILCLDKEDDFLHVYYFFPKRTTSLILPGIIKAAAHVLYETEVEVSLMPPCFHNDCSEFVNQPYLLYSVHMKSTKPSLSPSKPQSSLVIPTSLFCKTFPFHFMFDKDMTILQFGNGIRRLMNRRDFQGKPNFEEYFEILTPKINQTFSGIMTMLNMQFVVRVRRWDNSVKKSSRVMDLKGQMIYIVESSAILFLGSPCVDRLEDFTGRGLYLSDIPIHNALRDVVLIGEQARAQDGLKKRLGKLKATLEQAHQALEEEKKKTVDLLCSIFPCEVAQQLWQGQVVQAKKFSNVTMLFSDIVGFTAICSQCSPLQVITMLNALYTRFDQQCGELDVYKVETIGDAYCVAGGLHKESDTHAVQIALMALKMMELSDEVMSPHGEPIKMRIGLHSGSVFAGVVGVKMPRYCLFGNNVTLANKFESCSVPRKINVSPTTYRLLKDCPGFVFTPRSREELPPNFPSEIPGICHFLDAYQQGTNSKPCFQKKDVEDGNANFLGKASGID
T1 sequence (Q02153 1-619): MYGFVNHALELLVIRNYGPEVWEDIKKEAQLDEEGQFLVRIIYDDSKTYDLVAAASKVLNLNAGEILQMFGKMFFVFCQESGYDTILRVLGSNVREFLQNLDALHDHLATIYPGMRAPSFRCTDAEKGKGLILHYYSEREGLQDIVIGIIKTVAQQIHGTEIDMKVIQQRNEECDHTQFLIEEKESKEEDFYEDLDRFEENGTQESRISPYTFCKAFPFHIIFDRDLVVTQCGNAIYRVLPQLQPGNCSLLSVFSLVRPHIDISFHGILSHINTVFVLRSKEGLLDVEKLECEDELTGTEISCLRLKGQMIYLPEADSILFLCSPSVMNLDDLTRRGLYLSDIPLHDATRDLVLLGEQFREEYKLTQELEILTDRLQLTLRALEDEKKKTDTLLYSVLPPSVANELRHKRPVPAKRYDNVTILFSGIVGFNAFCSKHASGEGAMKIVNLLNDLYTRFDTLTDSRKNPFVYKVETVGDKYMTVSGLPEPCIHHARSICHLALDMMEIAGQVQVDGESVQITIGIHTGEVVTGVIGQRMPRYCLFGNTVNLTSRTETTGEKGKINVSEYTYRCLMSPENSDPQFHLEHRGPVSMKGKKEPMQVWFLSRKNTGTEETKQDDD
Method in brief: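 CHO-K1/sGC cells (4×10^5/mL) in EBSS with 5 mM MgCl2, 10 mM HEPES, 0.05% BSA and 0.5 mM IBMX, treated 1 hr at 37° C with compounds (2.5% DMSO) with or without 1 μM DETA-NO. cGMP measured by HTRF, expressed as % of a reference heme-dependent activator's maximum; inflection point and fold induction from 4P fit.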

[2] = tested on: systolic blood pressure in spontaneously hypertensive rats; assay: Acute efficacy in spontaneously hypertensive rats (SHR), telemetry blood pressure; type: in vivo, rat
Source text: Acute Efficacy in Spontaneously Hypertensive Rats (SHR)
Spontaneously hypertensive rats (SHR, male, Charles River) were implanted with DSI TA11 PA-C40 telemetry device (Data Sciences, Inc., St. Paul, Minn.) under isoflurane or ketamine/metomidine anesthesia. The telemetry unit catheter was inserted into the descending aorta via the femoral artery and the telemetry device was implanted subcutaneously in the left flank area. Animals were allowed to recover from surgery for 14 days before the start of any studies. Blood pressure, heart rate, and activity signals from conscious, freely moving rats were recorded continuously for 30 seconds every 10 minutes. On the day prior to administration of compound, a single oral dose of vehicle (10% transcutol/20% Cremophor/70% water) was administered to all animals to establish baseline control data. The blood pressure lowering efficacy of compound (PO) or vehicle was evaluated following a single oral gavage. Data were collected as hourly averages, and changes in blood pressure were calculated by subtracting control baseline data on an hourly basis. Animals were maintained on normal diet with a 12 hour light-dark cycle.
Maximum peak decreases of systolic blood pressure (SBP) in SHR at a particular P.O. dose (mpk milligrams per kilogram) for the following representative compounds are provided below in Table 6.
Category A=SBP in SHRs <20 mmHg; Category B=SBP in SHRs 20-40 mmHg;
Category C=SBP in SHRs >40 mmHg

Row | SMILES | Emax [1] | EC50 [1] | Maximum peak decrease of systolic blood pressure (SBP), Category ([2]; single oral dose 1.0 mpk P.O.) | Maximum peak decrease of systolic blood pressure (SBP), Category ([2]; single oral dose 0.3 mpk P.O.) | Maximum peak decrease of systolic blood pressure (SBP), Category ([2]; single oral dose 3.0 mpk P.O.)
1 | CCCOc1nc(-c2nc(N)c3c(n2)NC(=O)C3(C)c2ccc(Cl)cc2)cn2ccnc12 (stereo not drawn) [Example 49A, 4-amino-5-(4-chlorophenyl)-5-methyl-2-(8-propoxyimidazo [1,2-a]pyrazin-6-yl)-5,7-dihydro-6H-pyrrolo[2,3-d] pyrimidin-6-one] | 117% | 30 nM |  | B (Category B=SBP in SHRs 20-40 mmHg) | 
2 | CC1(c2ccc(Cl)cc2)C(=O)Nc2nc(-c3cn4ccnc4c(OCCC4CC4)n3)nc(N)c21 (stereo not drawn) [Example 50A, 4-amino-5-(4-chlorophenyl)-2-[8-(2-cyclo-propylethoxy)imidazo[1,2-a]pyrazin-6-yl]-5-methyl-5,7-dihydro-6H-pyrrolo[2,3-d] pyrimidin-6-one] | 106% | 12 nM |  | B (Category B=SBP in SHRs 20-40 mmHg) | 
3 | CC(C)COc1nc(-c2nc(N)c3c(n2)NC(=O)C3(C)c2ccc(F)cc2)cn2ccnc12 (stereo not drawn) [Example 51A, 4-amino-5-(4-fluorophenyl)-5-methyl-2-[8-(2-methyl-propoxy)imidazo [1,2-a]pyrazin-6-yl]-5,7-dihydro-6H-pyrrolo[2,3-d] pyrimidin-6-one] | 127% | 27 nM |  | B (Category B=SBP in SHRs 20-40 mmHg) | 
4 | CCCSc1nc(-c2nc(N)c3c(n2)NC(=O)C3(C)c2ccc(F)cc2)cn2ccnc12 (stereo not drawn) [Example 62A, 4-amino-5-(4-fluorophenyl)-5-methyl-2-[8-(propylsulfanyl)imidazo[1,2-a]pyrazin-6-yl]-5,7-dihydro-6H-pyrrolo [2,3-d]pyrimidin-6-one] | 99% | 142 nM | B (Category B=SBP in SHRs 20-40 mmHg) |  | 

Second part, led by results:

Row | Emax [1] | EC50 [1] | SMILES | Maximum peak decrease of systolic blood pressure (SBP), Category ([2]; single oral dose 1.0 mpk P.O.) | Maximum peak decrease of systolic blood pressure (SBP), Category ([2]; single oral dose 0.3 mpk P.O.) | Maximum peak decrease of systolic blood pressure (SBP), Category ([2]; single oral dose 3.0 mpk P.O.)
5 | 91% | 157 nM | CC1(c2ccc(Cl)cc2)C(=O)Nc2nc(-c3cn4ccnc4c(OCC(F)(F)C(F)(F)F)n3)nc(N)c21 (stereo not drawn) [Example 47A, 4-amino-5-(4-chlorophenyl)-5-methyl-2-[8-(2,2,3,3,3-pentafluoro-propoxy)imidazo [1,2-a]pyrazin-6-yl]-5,7-dihydro-6H-pyrrolo[2,3-d] pyrimidin-6-one] | B (Category B=SBP in SHRs 20-40 mmHg) |  | 
6 | 116% | 165 nM | CC1(c2ccc(Cl)cc2)C(=O)Nc2nc(-c3cn4ccnc4c(NCC(F)(F)C(F)(F)F)n3)nc(N)c21 (stereo not drawn) [Example 61A, 4-amino-5-(4-chlorophenyl)-5-methyl-2-{8-[(2,2,3,3,3-pentafluoro-propyl)amino]imidazo[1,2-a]pyrazin-6-yl}-5,7-dihydro-6H-pyrrolo [2,3-d]pyrimidin-6-one] |  |  | B (Category B=SBP in SHRs 20-40 mmHg)
